Experiments:
[1] = animal tests; isolated from Clausena Pentaphylla (Roxb.); cited from earlier work
[2] = tested on: CCl4 intoxicated mice; assay: Hepatoprotective action in CCl4 intoxicated mice (SGPT); assay type: in vivo, Male Kunming strain mice
Experimental: Male Kunming strain mice weighing 18-22 grams were used throughout the experiments. The compounds to be tested were suspended in 5% Tween 80 and given orally by gavage. The vehicle of 5% Tween 80 solution was administered to control mice via the same route. In in vitro experiments, the compounds were dissolved in dimethylformamide and added directly into the incubation mixture.
Mice were divided into several groups. The control group was administered the vehicle. The other groups were given two doses (250 mg/kg) of compound (I, R=H), at an interval of 8 h, respectively. 10 ml/kg of 0.1% CCl4 in vegetable oil was injected ip 24 h after the second administration of the compound. The mice were fasted for 16 h and sacrificed by decapitation. SGPT and liver lipids were determined. A piece of liver was processed into sections for pathological observation.

[3] = tested on: retrograde amnesia (rat) under hypoxic conditions; assay: Retrograde amnesia under hypoxic conditions (passive avoidance, dark compartment, foot shock); assay type: in vivo, Male rats; conditions: 100 mg/kg p.o.; 3.8% oxygen and 96.2% nitrogen; retest after 24 hours; groups of 15
Description: Influence of the compound (I, R=H) on retrograde amnesia (rat) under hypoxic conditions.
The apparatus (39 cm long, 21 cm high, and 21 cm wide) consists of two compartments, one made of translucent plastic (29 cm long) and the other one painted black (10 cm long). It has a bottom of spaced metal grids which are connected to a stimulating device delivering 1.6 mA for 20 s.
Both compartments are connected via a door which can be closed.
Male rats (100-120 g body weight) will be placed individually in the large compartment and allowed to explore both compartments for 3 min.
Thereafter, the animals are placed in the small (dark) compartment, the connecting door is closed and the foot shock is delivered. After that the animals are put in an air-tight cage which is perfused by a gas mixture containing 3.8% oxygen and 96.2% nitrogen.
24 hours later the rats are placed again in the bright compartment. The observation time is 3 min.
One experiment is performed in three groups of 15 animals each:
Group A: control group, not exposed to hypoxia
Group B: control group, receiving hypoxia after first training
Group C: treated animals, receiving hypoxia after first training
Evaluation: the times the animals need to enter the dark compartment are measured in seconds. […]
The time difference between the control group B and the treated group C is calculated in percent (C-B=X%). […]

Compound	spasmolytic activity (in words) [1]	SGPT, X ± SE ([2]; 250 mg/kg × 2, 8 h interval, oral by gavage, 10 ml/kg of 0.1% CCl4 ip 24 h after second dose, 9 per group, control 2270 ± 284, P <0.01)	effect on elevated SGPT (in words) ([2]; mice intoxicated with CCl4)	X, antiamnestic effect (C-B, with A-B=100%) [3]
C=CC(C)(C)c1cc2cc3c(cc2oc1=O)OC1(C)CCC(C(C)(C)O)OC1C3 (stereo not shown) [Clausmarins A]	showed spasmolytic activity			
CN1C=Cc2ccccc2C(c2ccccc2)C(O)C1=O (stereo not shown) [Compound (I, R = H)]		617 ± 166 unit %	significantly decreased the elevated SGPT	34%
